Structures can show the parent of a compound that is named as a salt.
Key:
[1] = biological target: T1, serotonine (5-HT) reuptake in synaptosomes (Rattus norvegicus, UniProt P31652); assay: Inhibition of 5-HT reuptake in synaptosomes; type: biochemical; conditions: 3H-5-HT, read-out: 5-HT-uptake IC50
T1 construct: serotonine (5-HT) in synaptosomes as described in WO 97/16451; from tissue; host or cells: synaptosomes (brain tissue)
From the text: (§1) Compounds of the invention may be tested for their ability to inhibit re-uptake of the monoamines dopamine, noradrenaline and serotonin in synaptosomes e.g. such as described in WO 97/30997 (NeuroSearch A/S) or WO 97/16451 (NeuroSearch NS). Based on the balanced activity observed in these tests the compound of the invention is considered useful for the treatment, prevention or alleviation of a disease or a disorder or a condition of a mammal, including a human, which disease, disorder or condition is responsive to inhibition of monoamine neurotransmitter re-uptake in the central nervous system.
(§2) Compounds were tested for their ability to inhibit the reuptake of the monoamine neurotransmitters dopamine (DA) noradrenaline (NA) and serotonine (5-HT) in synaptosomes as described in WO 97/16451 (NeuroSearch A/S).
(§3) The test values are given as IC50 (the concentration (μM) of the test substance which inhibits the specific binding of ^3H-DA, ^3H-NA, or ^3H-5-HT by 50%).

[2] = biological target: T2, dopamine (DA) reuptake in synaptosomes (Rattus norvegicus, UniProt P23977); assay: Inhibition of DA reuptake in synaptosomes; type: biochemical; conditions: 3H-DA, read-out: DA-uptake IC50
T2 construct: in synaptosomes as described in WO 97/16451; from tissue; host or cells: synaptosomes (brain tissue)
T2 sequence (P23977 whole entry): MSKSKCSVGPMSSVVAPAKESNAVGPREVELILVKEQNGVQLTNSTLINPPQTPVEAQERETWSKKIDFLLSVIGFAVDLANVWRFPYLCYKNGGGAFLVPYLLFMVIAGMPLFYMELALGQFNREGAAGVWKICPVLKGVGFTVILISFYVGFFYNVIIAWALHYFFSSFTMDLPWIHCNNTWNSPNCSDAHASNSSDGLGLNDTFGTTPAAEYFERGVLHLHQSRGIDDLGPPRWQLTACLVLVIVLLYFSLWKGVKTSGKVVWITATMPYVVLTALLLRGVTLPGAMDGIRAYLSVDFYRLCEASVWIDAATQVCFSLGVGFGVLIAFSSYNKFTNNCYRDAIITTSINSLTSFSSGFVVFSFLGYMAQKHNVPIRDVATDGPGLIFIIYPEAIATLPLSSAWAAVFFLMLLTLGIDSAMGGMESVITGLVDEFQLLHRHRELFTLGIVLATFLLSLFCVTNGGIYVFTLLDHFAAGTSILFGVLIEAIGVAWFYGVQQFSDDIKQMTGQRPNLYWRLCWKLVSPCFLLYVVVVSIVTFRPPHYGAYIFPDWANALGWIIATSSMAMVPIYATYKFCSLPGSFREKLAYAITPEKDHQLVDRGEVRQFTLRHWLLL
From the text: as §1, §2, §3

T1 sequence (P31652 whole entry): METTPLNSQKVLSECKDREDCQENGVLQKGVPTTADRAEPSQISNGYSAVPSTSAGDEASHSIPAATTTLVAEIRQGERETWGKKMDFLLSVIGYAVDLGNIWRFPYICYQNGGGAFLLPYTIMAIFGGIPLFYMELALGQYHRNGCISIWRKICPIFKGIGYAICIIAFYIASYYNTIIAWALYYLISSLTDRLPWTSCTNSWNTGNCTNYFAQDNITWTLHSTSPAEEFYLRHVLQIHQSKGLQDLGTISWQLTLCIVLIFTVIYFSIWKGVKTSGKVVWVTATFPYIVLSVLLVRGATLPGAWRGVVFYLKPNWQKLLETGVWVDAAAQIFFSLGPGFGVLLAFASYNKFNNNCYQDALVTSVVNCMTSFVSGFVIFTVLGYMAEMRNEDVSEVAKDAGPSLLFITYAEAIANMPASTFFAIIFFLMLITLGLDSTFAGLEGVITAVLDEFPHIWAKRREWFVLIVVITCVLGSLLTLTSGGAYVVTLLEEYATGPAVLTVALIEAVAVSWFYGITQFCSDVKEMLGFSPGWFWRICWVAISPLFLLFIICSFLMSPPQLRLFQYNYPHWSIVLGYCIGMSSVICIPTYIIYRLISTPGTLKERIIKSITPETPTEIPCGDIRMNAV

| IC50 [1] [nM] | IC50 [2] [nM] | melting point [°C] | SMILES |
| --- | --- | --- | --- |
| 370 | 21 | 159.3 to 160.7 | CCN(C(=O)C1CCNCC1)c1ccc(Cl)c(Cl)c1.O=C(O)C(F)(F)F [Compound C1, Piperidine-4-carboxylic acid (3,4-dichloro-phenyl)-ethyl-amide trifluoroacetic acid salt] |
| 140 | 7.8 |  | CCN(C(=O)C1CCNCC1)c1ccc(Cl)c(Br)c1 [Compound C7, Piperidine-4-carboxylic acid (3-bromo-4-chloro-phenyl)-ethyl-amide hydrochloric acid salt] |
| 120 | 4 |  | CCN(C(=O)C1CCNCC1)c1ccc(Br)c(Br)c1 [Compound C13, Piperidine-4-carboxylic acid (3,4-dibromo-phenyl)-ethyl-amide hydrochloric acid salt] |
